Experiments:
Experiment in all cases: relative viability (nuclei count vs DMSO), 5 days (fraction); higher = more cells survive
YM155 + Lapatinib = compound: COCC[n+]1c2c(n(Cc3cnccn3)c1C)C(=O)c1ccccc1C2=O [YM155] + CS(=O)(=O)CCNCc1ccc(-c2ccc3ncnc(Nc4ccc(OCc5cccc(F)c5)c(Cl)c4)c3c2)o1 [Lapatinib] (partner 2 µM)
Summary of the method: (§1)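 Values are medians from duplicate plates. Each reflects relative viability, defined as the nuclei count of treated wells over that of vehicle wells. Lung cancer cell lines in 1536-well plates were pin-tool dosed one day after seeding with one drug alone or with a fixed anchor-drug dose plus five library-drug doses (not always all listed) in √10 steps, then fixed, stained and imaged at 4× after 5 days.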

YM155 + Bortezomib = compound: COCC[n+]1c2c(n(Cc3cnccn3)c1C)C(=O)c1ccccc1C2=O [YM155] + CC(C)C[C@H](NC(=O)[C@H](Cc1ccccc1)NC(=O)c1cnccn1)B(O)O [Bortezomib] (partner 0.002 µM)
Summary of the method: as §1

Quizartinib + Tozasertib = compound: CC(C)(C)c1cc(NC(=O)Nc2ccc(-c3cn4c(n3)sc3cc(OCCN5CCOCC5)ccc34)cc2)no1 [Quizartinib] + Cc1cc(Nc2cc(N3CCN(C)CC3)nc(Sc3ccc(NC(=O)C4CC4)cc3)n2)n[nH]1 [Tozasertib] (partner 0.1 µM)
Summary of the method: as §1

Quizartinib + Phenformin = compound: CC(C)(C)c1cc(NC(=O)Nc2ccc(-c3cn4c(n3)sc3cc(OCCN5CCOCC5)ccc34)cc2)no1 [Quizartinib] + N=C(N)NC(=N)NCCc1ccccc1 [Phenformin] (partner 250 µM)
Summary of the method: as §1

NCI-H661 showed a relative viability (YM155 + Lapatinib; first compound 0.002 µM) of 0.522, a relative viability (YM155 + Lapatinib; first compound 0.006325 µM) of 0.575 and a relative viability (YM155 + Lapatinib; first compound 0.02 µM) of 0.575. It also gave a relative viability (YM155 + Lapatinib; first compound 0.06325 µM) of 0.421, a relative viability (YM155 + Bortezomib; first compound 0.002 µM) of 0.894 and a relative viability (YM155 + Bortezomib; first compound 0.006325 µM) of 0.983. It also gave a relative viability (YM155 + Bortezomib; first compound 0.02 µM) of 0.835, a relative viability (YM155 + Bortezomib; first compound 0.06325 µM) of 0.848 and a relative viability (Quizartinib + Tozasertib; first compound 0.001 µM) of 0.298. It also gave a relative viability (Quizartinib + Tozasertib; first compound 0.003162 µM) of 0.364, a relative viability (Quizartinib + Tozasertib; first compound 0.01 µM) of 0.352 and a relative viability (Quizartinib + Tozasertib; first compound 0.03162 µM) of 0.359. The relative viability (Quizartinib + Tozasertib; first compound 0.1 µM) was 0.355, the relative viability (Quizartinib + Phenformin; first compound 0.001 µM) was 0.274 and the relative viability (Quizartinib + Phenformin; first compound 0.003162 µM) was 0.289. It also gave a relative viability (Quizartinib + Phenformin; first compound 0.01 µM) of 0.3, a relative viability (Quizartinib + Phenformin; first compound 0.03162 µM) of 0.224 and a relative viability (Quizartinib + Phenformin; first compound 0.1 µM) of 0.194.
In the case of NCI-H322M, the relative viability (YM155 + Lapatinib; first compound 0.002 µM) is reported as 0.601, the relative viability (YM155 + Lapatinib; first compound 0.006325 µM) is reported as 0.628 and the relative viability (YM155 + Lapatinib; first compound 0.02 µM) is reported as 0.509. For the same cell line, the relative viability (YM155 + Lapatinib; first compound 0.06325 µM) was 0.585, the relative viability (YM155 + Bortezomib; first compound 0.002 µM) was 1.22 and the relative viability (YM155 + Bortezomib; first compound 0.006325 µM) was 1.18. It also gave a relative viability (YM155 + Bortezomib; first compound 0.02 µM) of 1.19, a relative viability (YM155 + Bortezomib; first compound 0.06325 µM) of 1.37 and a relative viability (Quizartinib + Tozasertib; first compound 0.001 µM) of 0.393. The relative viability (Quizartinib + Tozasertib; first compound 0.003162 µM) was 0.468, the relative viability (Quizartinib + Tozasertib; first compound 0.01 µM) was 0.505 and the relative viability (Quizartinib + Tozasertib; first compound 0.03162 µM) was 0.511. It also gave a relative viability (Quizartinib + Tozasertib; first compound 0.1 µM) of 0.558, a relative viability (Quizartinib + Phenformin; first compound 0.001 µM) of 0.541 and a relative viability (Quizartinib + Phenformin; first compound 0.003162 µM) of 0.827. For the same cell line, the relative viability (Quizartinib + Phenformin; first compound 0.01 µM) was 0.837, the relative viability (Quizartinib + Phenformin; first compound 0.03162 µM) was 0.547 and the relative viability (Quizartinib + Phenformin; first compound 0.1 µM) was 0.744.
Cell Line NCI-H838 has a relative viability (YM155 + Lapatinib; first compound 0.002 µM) of 0.92, a relative viability (YM155 + Lapatinib; first compound 0.006325 µM) of 1.01 and a relative viability (YM155 + Lapatinib; first compound 0.02 µM) of 1.03. For the same cell line, the relative viability (YM155 + Lapatinib; first compound 0.06325 µM) was 0.353, the relative viability (YM155 + Bortezomib; first compound 0.002 µM) was 0.94 and the relative viability (YM155 + Bortezomib; first compound 0.006325 µM) was 1.01. The relative viability (YM155 + Bortezomib; first compound 0.02 µM) was 0.958, the relative viability (YM155 + Bortezomib; first compound 0.06325 µM) was 0.817 and the relative viability (Quizartinib + Tozasertib; first compound 0.001 µM) was 0.249. For the same cell line, the relative viability (Quizartinib + Tozasertib; first compound 0.003162 µM) was 0.22, the relative viability (Quizartinib + Tozasertib; first compound 0.01 µM) was 0.3 and the relative viability (Quizartinib + Tozasertib; first compound 0.03162 µM) was 0.276. It also gave a relative viability (Quizartinib + Tozasertib; first compound 0.1 µM) of 0.22, a relative viability (Quizartinib + Phenformin; first compound 0.001 µM) of 0.442 and a relative viability (Quizartinib + Phenformin; first compound 0.003162 µM) of 0.692. For the same cell line, the relative viability (Quizartinib + Phenformin; first compound 0.01 µM) was 0.498, the relative viability (Quizartinib + Phenformin; first compound 0.03162 µM) was 0.607 and the relative viability (Quizartinib + Phenformin; first compound 0.1 µM) was 0.329.
For NCI-H23, the relative viability (YM155 + Lapatinib; first compound 0.002 µM) was 0.877, the relative viability (YM155 + Lapatinib; first compound 0.006325 µM) was 1.09 and the relative viability (YM155 + Lapatinib; first compound 0.02 µM) was 0.736. It also gave a relative viability (YM155 + Lapatinib; first compound 0.06325 µM) of 0.313, a relative viability (YM155 + Bortezomib; first compound 0.002 µM) of 0.7 and a relative viability (YM155 + Bortezomib; first compound 0.006325 µM) of 1.05. It also gave a relative viability (YM155 + Bortezomib; first compound 0.02 µM) of 0.929, a relative viability (YM155 + Bortezomib; first compound 0.06325 µM) of 0.455 and a relative viability (Quizartinib + Tozasertib; first compound 0.003162 µM) of 0.343. The relative viability (Quizartinib + Tozasertib; first compound 0.01 µM) was 0.405, the relative viability (Quizartinib + Tozasertib; first compound 0.03162 µM) was 0.249 and the relative viability (Quizartinib + Tozasertib; first compound 0.1 µM) was 0.231. The relative viability (Quizartinib + Phenformin; first compound 0.003162 µM) was 0.724, the relative viability (Quizartinib + Phenformin; first compound 0.01 µM) was 0.771 and the relative viability (Quizartinib + Phenformin; first compound 0.03162 µM) was 0.727. The relative viability (Quizartinib + Phenformin; first compound 0.1 µM) was 0.841.
For LOU-NH91, the relative viability (YM155 + Lapatinib; first compound 0.002 µM) was 0.828, the relative viability (YM155 + Lapatinib; first compound 0.006325 µM) was 0.778 and the relative viability (YM155 + Lapatinib; first compound 0.02 µM) was 0.778. It also gave a relative viability (YM155 + Lapatinib; first compound 0.06325 µM) of 0.788, a relative viability (YM155 + Bortezomib; first compound 0.002 µM) of 0.704 and a relative viability (YM155 + Bortezomib; first compound 0.006325 µM) of 0.521. It also gave a relative viability (YM155 + Bortezomib; first compound 0.02 µM) of 0.487, a relative viability (YM155 + Bortezomib; first compound 0.06325 µM) of 0.555 and a relative viability (Quizartinib + Tozasertib; first compound 0.001 µM) of 0.472. The relative viability (Quizartinib + Tozasertib; first compound 0.003162 µM) was 0.693, the relative viability (Quizartinib + Tozasertib; first compound 0.01 µM) was 0.462 and the relative viability (Quizartinib + Tozasertib; first compound 0.03162 µM) was 0.649. For the same cell line, the relative viability (Quizartinib + Tozasertib; first compound 0.1 µM) was 0.668, the relative viability (Quizartinib + Phenformin; first compound 0.001 µM) was 0.693 and the relative viability (Quizartinib + Phenformin; first compound 0.003162 µM) was 0.679. It also gave a relative viability (Quizartinib + Phenformin; first compound 0.01 µM) of 0.723, a relative viability (Quizartinib + Phenformin; first compound 0.03162 µM) of 0.682 and a relative viability (Quizartinib + Phenformin; first compound 0.1 µM) of 0.862.

— the supplement of paper PMC10307832
